Converted amounts (≈) assume the structure as drawn. Read-outs that look alike come from different tables or passages of the source.
What was measured:
[1] = test system: M. tuberculosis H37Rv; test: microbe, parasite or virus in culture; assay type: cell-based, Mycobacterium tuberculosis; conditions: 7 days incubation, resazurin readout, tested 300 to 2.3 µM, read-out: MIC90 M. tuberculosis (REMA)
[2] = test system: M. tuberculosis H37Rv expressing GFP (H37Rv::pJKD6); test: microbe, parasite or virus in culture; assay type: cell-based, Mycobacterium tuberculosis; conditions: for MIC: Mycobacterium tuberculosis, H37RV, 168 h, read-out: MIC98 M. tuberculosis (GFP)
[3] = test system: Staphylococcus aureus (SH1000); test: microbe, parasite or virus in culture; assay type: cell-based; conditions: 5 h incubation, resazurin readout, tested 300 to 2.3 µM, read-out: MIC90 S. aureus (REMA)
[4] = Cytotoxicity by live imaging (Hoechst 33342 / propidium iodide); assay type: cell-based; conditions: mouse
Protocol: (§1) The cytotoxicity of the compounds to BALB/3T3 cells was determined using live imaging following both Hoechst 33342 and propidium iodide staining. Briefly, BALB/3T3 cells were seeded in a 384-well plate and 24 h later, the compounds were added (0, 12.5, 25, 50, and 100 µM) to the culture medium, as well as Hoechst 33342 and propidium iodide (PI). Then, 24 h and 48 h after the compounds were added, live imaging was performed using an In Cell Analyzer 6000 (STP GE Healthcare, Glascow, UK). The cytotoxicity was defined based on the ratio of the population of dead or dying cells (propidium iodide staining) to the total cell population (Hoechst staining), as determined using Columbus software 2.9.1 (PerkinElmer Informatics, WA, USA). The compounds were tested in triplicate. Carfilzomib (500, 250, 140, and 60 nM) was used as the positive control in this assay.

[5] = Kinetic solubility in PBS by LC-MS/MS; assay type: physicochemical
Protocol: The kinetic solubility was determined using LC–MS/MS analysis in PBS at pH 7.4. Briefly, a 10 mM 100% DMSO solution of the compound was diluted 50-fold either in PBS at pH 7.4 (in triplicate) or in DMSO in polypropylene tubes (n = 3 for PBS and n = 6 for DMSO). The tubes were gently shaken for 24 h at 21 °C. Then, the three PBS tubes and three of the six DMSO tubes were centrifuged for 5 min at 4000 rpm and filtered over 0.45 μm filters (Millex-LH Millipore). Then, 40 μL of each solution was diluted in 160 μL of MeCN and 40 µL of Milli-Q water and transferred to matrix tubes for the LC–MS/MS analysis. The solubility was determined according to the following formula: Solubility (μM) = (AUC (filtered PBS)/AUC (not filtered DMSO)) × 200. The test was validated if (AUC (not filtered DMSO) − AUC (filtered DMSO))/AUC (not filtered DMSO) ≤ 10%.

[6] = test system: M. tuberculosis strains; parameters: method as in PMID 9747541; conditions: cited from earlier work
[7] = test system: BALB/3T3 cells; test: Cytotoxicity by live imaging (Hoechst 33342 / propidium iodide); assay type: cell-based; conditions: BALB/3T3 cells; 0, 12.5, 25, 50, 100 µM; imaging at 24 h and 48 h; read-out: Cytotoxicity Balb3T3 CC50
Protocol: as §1

[8] = Mycobacterium tuberculosis, H37RV, 168 h
[9] = 21 °C, pH 7.4, aqueous buffer, kinetic from dmso stock

Compound | MIC90 [1, 8] | MIC [2] | MIC90 ([3]; Staphylococcus aureus) | CC50 [4] | solubility at 24 h [5, 9] | minimum inhibitory concentration (MIC) against M. tuberculosis strains [6] | CC50 ([4]; BALB/3T3 cells, 0, 12.5, 25, 50, 100 µM, imaging at 24 h and 48 h, read-out: Cytotoxicity Balb3T3 CC50) | solubility at 24 h ([5]; aqueous buffer, kinetic from dmso stock, kinetic solubility, PBS pH 7.4, 24 h at 21 °C, from 10 mM DMSO solution diluted 50-fold, read-out: Solubility) | MIC90 [1] | MIC98 M. tuberculosis (GFP) [2] | MIC90 [3] | CC50 [7] | solubility at 24 h ([5]; kinetic solubility, PBS pH 7.4, 24 h at 21 °C, from 10 mM DMSO solution diluted 50-fold, read-out: Solubility)
C=C1C(=O)O[C@H]2[C@H]1CC/C(C)=C/CC[C@@]1(C)O[C@@H]21 [Compound 1, Parthenolide] | 9.4 to 19 µM (≈ 2.33 to 4.72 µg/mL) | 9.4 to 19 µM (≈ 2.33 to 4.72 µg/mL) | > 300 µM | > 100 µM | 135 µM (≈ 33.5 µg/mL) | 16 µg/mL (≈ 64.4 µM) | – | – | – | – | – | – | –
C=C1CC[C@H]2C(=C)C(=O)O[C@@H]2[C@@H]2O[C@]2(C)CC[C@H]1N(O)C(=O)OCC(Cl)(Cl)Cl [Compound 15, 2,2,2-trichloroethyl-N-hydroxy-N-[(1S,2S,4R,7R,11S)-4-methyl-8,12-dimethylene-13-oxo-3,14-dioxatricyclo[9.3.0.02,4]tetradecan-7-yl]carbamate] | 38 µM (≈ 17.3 µg/mL) | 19 µM (≈ 8.64 µg/mL) | > 300 µM | 12.5 µM | 184 µM (≈ 83.7 µg/mL) | – | – | – | – | – | – | – | –
C=C1CC[C@H]2C(=C)C(=O)O[C@@H]2[C@@H]2O[C@]2(C)CC[C@H]1N(O)C(=O)Oc1ccc(F)cc1 [Compound 16, (4-fluorophenyl)-N-hydroxy-N-[(1S,2S,4R,7R,11S)-4-methyl-8,12-dimethylene-13-oxo-3,14-dioxatricyclo[9.3.0.02,4]tetradecan-7-yl]carbamate] | 75 µM (≈ 31.3 µg/mL) | 38 to 75 µM (≈ 15.9 to 31.3 µg/mL) | > 300 µM | – | – | – | 25 µM | 182 µM (≈ 76 µg/mL) | – | – | – | – | –
tert-butyl-N-hydroxy-N-[(1S,2S,4R,7R,11S)-4-methyl-8,12-dimethylene-13-oxo-3,14-dioxatricyclo[9.3.0.02,4]tetradecan-7-yl]carbamate [Compound 12] | – | – | – | – | – | – | – | – | 38 µM | 19 to 38 µM | >300 µM | > 100 µM | 176 µM

Reference: paper PMC10744032, “Regioselective and Stereoselective Synthesis of Parthenolide Analogs by Acyl Nitroso-Ene Reaction and Their Biological Evaluation against Mycobacterium tuberculosis” (International Journal of Molecular Sciences, 2023)
